# Results from patent US6998423B2, “Prevention of loss and restoration of bone mass by certain prostaglandin agonists” (priority 1996, dated 2006).
# Tested on: Bone Morphogenetic Protein 7 (BMP-7) expression in EP2 293S cells
# Assay: Induction of BMP-7 expression (Northern blot) in 293S cells transfected with the EP2 receptor
# Type: cell-based, human
# Conditions: 10^−6M, RNA extracted at 8, 16 and 24 hours, Northern blot with 32P-labeled BMP-7 probe
# Method: Methods: 293S and EP2 293S cells were grown in Dulbecco's Modified Egale medium (DMEM, Gibco, BRL; Gaithersburg, Md.). One day prior to treatment with PGE2or a prostaglandin agonist, cells were plated at a density of 1.5×10^6 cells /10 cm dish. […] Cells were harvested and RNA extracted at 8, 16 and 24 hours. Northern blot analysis of total ([…] ) was carried out by probing the blots with ^32P-labeled BMP-7 probe. The blots were normalized for RNA loading by hybridization with ^32P-labeled 18s ribosomal RNA probe. […] Given the known role of BMP-7 in kidney regeneration and the ability of a prostaglandin agonist to induce BMP-7 expression in 293S kidney cells in a time and receptor specific manner indicates a role for a prostaglandin agonist in kidney regeneration.
compound,measurement,value
"CCCCC[C@H](O)/C=C/[C@H]1[C@H](O)CC(=O)[C@@H]1C/C=C\CCCC(=O)O [PGE2, prostaglandin E2]",induction of the expression of BMP-7,in a time dependent manner induce the expression of BMP-7
